In patent US12077503B2, “Substituted cyclic amides and their use as herbicides” (FMC CORPORATION, priority 2015, dated 2024):

Key:
Format in all cases: in vivo
corn (Zea mays) = assay: Test C preemergence; conditions: for Plant response rating (scale of 0 to 100), Corn: 0 is no effect, 100 is complete control; for Plant response rating, Corn: scale 0 to 100, 0 no effect, 100 complete control
Summary of the method: (§1)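 Scores of 0 to 100 reflect visual comparison with control plants, where 0 means no effect and 100 complete control, made 13 to 15 d after treatment. Application was preemergence to seeds in loam-sand soil or postemergence to plants 2 to 18 cm tall in peat-based mix, using a surfactant-containing solvent formulation.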

[1] = tested on: nutsedge, yellow (yellow nutsedge, Cyperus esculentus); assay: Test C preemergence; conditions: for Plant response rating (scale of 0 to 100), Nutsedge, Yellow: 0 is no effect, 100 is complete control; for Plant response rating, Nutsedge, Yellow: scale 0 to 100, 0 no effect, 100 complete control
Summary of the method: as §1

[2] = tested on: Panicum, fall (fall Panicum, Panicum dichotomiflorum); assay: Test E preemergence; conditions: scale 0 to 100
Summary of the method: (§2)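 Seeds sown in silt loam treated preemergence, or plants 2 to 18 cm tall in peat-based potting medium treated postemergence, with test chemical in a non-phytotoxic solvent mixture containing surfactant. Kept in greenhouse 14 to 21 d, then visually rated against controls on a 0–100 scale (0 no effect, 100 complete control).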

[3] = tested on: arrowleaf Sida (Sida rhombifolia); assay: Test E preemergence; conditions: scale 0 to 100
Summary of the method: as §2

[4] = tested on: barnyardgrass (Echinochloa crus-galli); assay: Test E preemergence; conditions: scale 0 to 100
Summary of the method: as §2

[5] = tested on: beggarticks (hairy beggarticks, Bidens pilosa); assay: Test E preemergence; conditions: scale 0 to 100
Summary of the method: as §2

[6] = tested on: foxtail, giant (giant foxtail, Setaria faberii); assay: Test E preemergence; conditions: scale 0 to 100
Summary of the method: as §2

[7] = tested on: foxtail, green (green foxtail, Setaria viridis); assay: Test E preemergence; conditions: scale 0 to 100
Summary of the method: as §2

[8] = tested on: goosegrass (Eleusine indica); assay: Test E preemergence; conditions: scale 0 to 100
Summary of the method: as §2

[9] = tested on: morningglory (Ipomoea coccinea); assay: Test E preemergence; conditions: scale 0 to 100
Summary of the method: as §2

[10] = tested on: nightshade (eastern black nightshade, Solanum ptycanthum); assay: Test E preemergence; conditions: scale 0 to 100
Summary of the method: as §2

[11] = tested on: ragweed (common ragweed, Ambrosia elatior); assay: Test E preemergence; conditions: scale 0 to 100
Summary of the method: as §2

[12] = tested on: surinam grass (Brachiaria decumbens); assay: Test E preemergence; conditions: scale 0 to 100
Summary of the method: as §2

[13] = tested on: velvetleaf (Abutilon theophrasti); assay: Test E preemergence; conditions: scale 0 to 100
Summary of the method: as §2

[14] = tested on: waterhemp (common waterhemp, Amaranthus rudis); assay: Test E preemergence; conditions: scale 0 to 100
Summary of the method: as §2

In the case of `CN1C[C@H](c2ccc(F)c(F)c2)[C@@H](C(=O)Nc2ccccc2F)C1=O` [Compound 596, (3S,4S)-4-(3,4-difluorophenyl)-N-(2-fluorophenyl)-1-methyl-2-oxo-3-pyrrolidinecarboxamide], the “Plant response rating (scale of 0 to 100), Corn” value (corn (Zea mays); 31 g ai/ha) is reported as 0, the “Plant response rating, Corn” value (corn (Zea mays); 62 g ai/ha) is reported as 0 and the “Plant response rating, Corn” value (corn (Zea mays); 125 g ai/ha) is reported as 0. The “Plant response rating, Corn” value (corn (Zea mays); 250 g ai/ha) was 35, the “Plant response rating (scale of 0 to 100), Nutsedge, Yellow” value ([1]; 31 g ai/ha) was 0 and the “Plant response rating, Nutsedge, Yellow” value ([1]; 62 g ai/ha) was 0. The “Plant response rating, Nutsedge, Yellow” value ([1]; 125 g ai/ha) was 0, the “Plant response rating, Nutsedge, Yellow” value ([1]; 250 g ai/ha) was 0 and the “Plant response rating: Panicum, Fall” value ([2]; 31 g ai/ha) was 0. For the same compound, the “Plant response rating: Panicum, Fall” value ([2]; 62 g ai/ha) was 0, the “Plant response rating: Panicum, Fall” value ([2]; 125 g ai/ha) was 0 and the “Plant response rating: Panicum, Fall” value ([2]; 250 g ai/ha) was 90. The “Plant response rating: Arrowleaf Sida” value ([3]; 31 g ai/ha) was 35, the “Plant response rating: Arrowleaf Sida” value ([3]; 62 g ai/ha) was 30 and the “Plant response rating: Arrowleaf Sida” value ([3]; 125 g ai/ha) was 30. The “Plant response rating: Arrowleaf Sida” value ([3]; 250 g ai/ha) was 50, the “Plant response rating: Barnyardgrass” value ([4]; 31 g ai/ha) was 95 and the “Plant response rating: Barnyardgrass” value ([4]; 62 g ai/ha) was 98. The “Plant response rating: Barnyardgrass” value ([4]; 125 g ai/ha) was 98, the “Plant response rating: Barnyardgrass” value ([4]; 250 g ai/ha) was 98 and the “Plant response rating: Beggarticks” value ([5]; 31 g ai/ha) was 0. For the same compound, the “Plant response rating: Beggarticks” value ([5]; 62 g ai/ha) was 0, the “Plant response rating: Beggarticks” value ([5]; 125 g ai/ha) was 0 and the “Plant response rating: Beggarticks” value ([5]; 250 g ai/ha) was 0. For the same compound, the “Plant response rating: Foxtail, Giant” value ([6]; 31 g ai/ha) was 95, the “Plant response rating: Foxtail, Giant” value ([6]; 62 g ai/ha) was 95 and the “Plant response rating: Foxtail, Giant” value ([6]; 125 g ai/ha) was 98. For the same compound, the “Plant response rating: Foxtail, Giant” value ([6]; 250 g ai/ha) was 98, the “Plant response rating: Foxtail, Green” value ([7]; 31 g ai/ha) was 95 and the “Plant response rating: Foxtail, Green” value ([7]; 62 g ai/ha) was 95. The “Plant response rating: Foxtail, Green” value ([7]; 125 g ai/ha) was 95, the “Plant response rating: Foxtail, Green” value ([7]; 250 g ai/ha) was 95 and the “Plant response rating: Goosegrass” value ([8]; 31 g ai/ha) was 5. For the same compound, the “Plant response rating: Goosegrass” value ([8]; 62 g ai/ha) was 5, the “Plant response rating: Goosegrass” value ([8]; 125 g ai/ha) was 25 and the “Plant response rating: Goosegrass” value ([8]; 250 g ai/ha) was 65. For the same compound, the “Plant response rating: Morningglory” value ([9]; 31 g ai/ha) was 0, the “Plant response rating: Morningglory” value ([9]; 62 g ai/ha) was 0 and the “Plant response rating: Morningglory” value ([9]; 125 g ai/ha) was 0. For the same compound, the “Plant response rating: Morningglory” value ([9]; 250 g ai/ha) was 0, the “Plant response rating: Nightshade” value ([10]; 31 g ai/ha) was 0 and the “Plant response rating: Nightshade” value ([10]; 62 g ai/ha) was 0. The “Plant response rating: Nightshade” value ([10]; 125 g ai/ha) was 0, the “Plant response rating: Nightshade” value ([10]; 250 g ai/ha) was 60 and the “Plant response rating: Ragweed” value ([11]; 31 g ai/ha) was 0. For the same compound, the “Plant response rating: Ragweed” value ([11]; 62 g ai/ha) was 0, the “Plant response rating: Ragweed” value ([11]; 125 g ai/ha) was 25 and the “Plant response rating: Ragweed” value ([11]; 250 g ai/ha) was 50. The “Plant response rating: Surinam Grass” value ([12]; 31 g ai/ha) was 35, the “Plant response rating: Surinam Grass” value ([12]; 62 g ai/ha) was 65 and the “Plant response rating: Surinam Grass” value ([12]; 125 g ai/ha) was 95. The “Plant response rating: Surinam Grass” value ([12]; 250 g ai/ha) was 95, the “Plant response rating: Velvetleaf” value ([13]; 31 g ai/ha) was 0 and the “Plant response rating: Velvetleaf” value ([13]; 62 g ai/ha) was 0. For the same compound, the “Plant response rating: Velvetleaf” value ([13]; 125 g ai/ha) was 0, the “Plant response rating: Velvetleaf” value ([13]; 250 g ai/ha) was 35 and the “Plant response rating: Waterhemp” value ([14]; 31 g ai/ha) was 0. For the same compound, the “Plant response rating: Waterhemp” value ([14]; 62 g ai/ha) was 0, the “Plant response rating: Waterhemp” value ([14]; 125 g ai/ha) was 0 and the “Plant response rating: Waterhemp” value ([14]; 250 g ai/ha) was 50.
In the case of `CN1C[C@H](c2ccc(C(F)(F)F)cc2)[C@@H](C(=O)Nc2cccc(F)c2F)C1=O` [Compound 623, (3S,4S)—N-(2,3-difluorophenyl)-1-methyl-2-oxo-4-[4-(trifluoromethyl)phenyl]-3-pyrrolidinecarboxamide], the “Plant response rating (scale of 0 to 100), Corn” value (corn (Zea mays); 8 g ai/ha) is reported as 10, the “Plant response rating (scale of 0 to 100), Corn” value (corn (Zea mays); 16 g ai/ha) is reported as 30 and the “Plant response rating (scale of 0 to 100), Corn” value (corn (Zea mays); 31 g ai/ha) is reported as 60. For the same compound, the “Plant response rating, Corn” value (corn (Zea mays); 62 g ai/ha) was 65, the “Plant response rating (scale of 0 to 100), Nutsedge, Yellow” value ([1]; 8 g ai/ha) was 0 and the “Plant response rating (scale of 0 to 100), Nutsedge, Yellow” value ([1]; 16 g ai/ha) was 0. For the same compound, the “Plant response rating (scale of 0 to 100), Nutsedge, Yellow” value ([1]; 31 g ai/ha) was 0, the “Plant response rating, Nutsedge, Yellow” value ([1]; 62 g ai/ha) was 0 and the “Plant response rating: Panicum, Fall” value ([2]; 31 g ai/ha) was 90. The “Plant response rating: Panicum, Fall” value ([2]; 62 g ai/ha) was 90, the “Plant response rating: Panicum, Fall” value ([2]; 125 g ai/ha) was 90 and the “Plant response rating: Panicum, Fall” value ([2]; 250 g ai/ha) was 90. For the same compound, the “Plant response rating: Arrowleaf Sida” value ([3]; 31 g ai/ha) was 20, the “Plant response rating: Arrowleaf Sida” value ([3]; 62 g ai/ha) was 80 and the “Plant response rating: Arrowleaf Sida” value ([3]; 125 g ai/ha) was 85. For the same compound, the “Plant response rating: Arrowleaf Sida” value ([3]; 250 g ai/ha) was 90, the “Plant response rating: Barnyardgrass” value ([4]; 31 g ai/ha) was 95 and the “Plant response rating: Barnyardgrass” value ([4]; 62 g ai/ha) was 95. For the same compound, the “Plant response rating: Barnyardgrass” value ([4]; 125 g ai/ha) was 98, the “Plant response rating: Barnyardgrass” value ([4]; 250 g ai/ha) was 98 and the “Plant response rating: Beggarticks” value ([5]; 31 g ai/ha) was 0. For the same compound, the “Plant response rating: Beggarticks” value ([5]; 62 g ai/ha) was 0, the “Plant response rating: Beggarticks” value ([5]; 125 g ai/ha) was 0 and the “Plant response rating: Beggarticks” value ([5]; 250 g ai/ha) was 35. For the same compound, the “Plant response rating: Foxtail, Giant” value ([6]; 31 g ai/ha) was 95, the “Plant response rating: Foxtail, Giant” value ([6]; 62 g ai/ha) was 95 and the “Plant response rating: Foxtail, Giant” value ([6]; 125 g ai/ha) was 95. The “Plant response rating: Foxtail, Giant” value ([6]; 250 g ai/ha) was 95, the “Plant response rating: Foxtail, Green” value ([7]; 31 g ai/ha) was 95 and the “Plant response rating: Foxtail, Green” value ([7]; 62 g ai/ha) was 95. For the same compound, the “Plant response rating: Foxtail, Green” value ([7]; 125 g ai/ha) was 98, the “Plant response rating: Foxtail, Green” value ([7]; 250 g ai/ha) was 98 and the “Plant response rating: Goosegrass” value ([8]; 31 g ai/ha) was 95. For the same compound, the “Plant response rating: Goosegrass” value ([8]; 62 g ai/ha) was 98, the “Plant response rating: Goosegrass” value ([8]; 125 g ai/ha) was 98 and the “Plant response rating: Goosegrass” value ([8]; 250 g ai/ha) was 98. The “Plant response rating: Morningglory” value ([9]; 31 g ai/ha) was 0, the “Plant response rating: Morningglory” value ([9]; 62 g ai/ha) was 0 and the “Plant response rating: Morningglory” value ([9]; 125 g ai/ha) was 0. The “Plant response rating: Morningglory” value ([9]; 250 g ai/ha) was 0, the “Plant response rating: Nightshade” value ([10]; 62 g ai/ha) was 35 and the “Plant response rating: Nightshade” value ([10]; 125 g ai/ha) was 70. The “Plant response rating: Nightshade” value ([10]; 250 g ai/ha) was 70, the “Plant response rating: Ragweed” value ([11]; 31 g ai/ha) was 60 and the “Plant response rating: Ragweed” value ([11]; 62 g ai/ha) was 90. For the same compound, the “Plant response rating: Ragweed” value ([11]; 125 g ai/ha) was 95, the “Plant response rating: Ragweed” value ([11]; 250 g ai/ha) was 85 and the “Plant response rating: Surinam Grass” value ([12]; 31 g ai/ha) was 75. For the same compound, the “Plant response rating: Surinam Grass” value ([12]; 62 g ai/ha) was 90, the “Plant response rating: Surinam Grass” value ([12]; 125 g ai/ha) was 90 and the “Plant response rating: Surinam Grass” value ([12]; 250 g ai/ha) was 90. For the same compound, the “Plant response rating: Velvetleaf” value ([13]; 31 g ai/ha) was 0, the “Plant response rating: Velvetleaf” value ([13]; 62 g ai/ha) was 50 and the “Plant response rating: Velvetleaf” value ([13]; 125 g ai/ha) was 65. The “Plant response rating: Velvetleaf” value ([13]; 250 g ai/ha) was 65, the “Plant response rating: Waterhemp” value ([14]; 31 g ai/ha) was 90 and the “Plant response rating: Waterhemp” value ([14]; 62 g ai/ha) was 90. The “Plant response rating: Waterhemp” value ([14]; 125 g ai/ha) was 95 and the “Plant response rating: Waterhemp” value ([14]; 250 g ai/ha) was 95.
